Columns and labels:
Estrogen receptor [1] = biological target: T1, Estrogen receptor (Homo sapiens, UniProt P03372); experiment: Inhibition of ER
T1 sequence (P03372 whole entry): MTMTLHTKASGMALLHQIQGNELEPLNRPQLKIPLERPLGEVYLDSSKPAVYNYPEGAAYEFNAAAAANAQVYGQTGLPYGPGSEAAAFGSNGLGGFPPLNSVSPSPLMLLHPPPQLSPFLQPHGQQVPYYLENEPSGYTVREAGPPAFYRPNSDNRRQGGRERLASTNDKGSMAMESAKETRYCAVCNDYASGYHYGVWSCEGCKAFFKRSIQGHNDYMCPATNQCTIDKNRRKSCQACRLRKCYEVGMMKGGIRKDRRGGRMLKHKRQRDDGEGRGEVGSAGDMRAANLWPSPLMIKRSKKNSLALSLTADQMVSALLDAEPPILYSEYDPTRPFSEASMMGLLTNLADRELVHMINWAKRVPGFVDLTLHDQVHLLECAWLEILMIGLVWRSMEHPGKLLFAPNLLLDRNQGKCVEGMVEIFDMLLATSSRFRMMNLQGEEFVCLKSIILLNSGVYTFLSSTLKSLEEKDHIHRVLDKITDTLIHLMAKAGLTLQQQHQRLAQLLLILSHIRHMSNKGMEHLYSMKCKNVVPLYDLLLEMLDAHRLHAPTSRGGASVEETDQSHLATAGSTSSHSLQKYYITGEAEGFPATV

[2] = biological target: T2, Vitamin D3 receptor (Homo sapiens) (UniProt P11473); experiment: Displacement of 1,25-dihydroxyvitamin D3 from GST-tagged VDR ligand binding domain assessed as inhibition of interaction with coactivator proteins at 10 uM by TR-FRET assay
T2 sequence (whole entry): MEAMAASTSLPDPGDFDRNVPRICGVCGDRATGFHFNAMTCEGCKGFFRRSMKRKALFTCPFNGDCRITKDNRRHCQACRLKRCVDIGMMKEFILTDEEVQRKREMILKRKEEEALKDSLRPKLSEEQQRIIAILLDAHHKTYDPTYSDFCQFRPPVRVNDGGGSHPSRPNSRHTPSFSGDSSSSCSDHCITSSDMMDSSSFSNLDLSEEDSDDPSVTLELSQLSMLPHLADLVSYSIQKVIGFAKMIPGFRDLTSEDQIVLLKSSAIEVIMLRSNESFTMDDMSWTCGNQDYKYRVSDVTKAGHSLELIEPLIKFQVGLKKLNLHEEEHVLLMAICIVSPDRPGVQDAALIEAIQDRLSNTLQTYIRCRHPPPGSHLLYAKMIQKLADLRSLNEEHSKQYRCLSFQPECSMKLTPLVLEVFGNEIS

Vitamin D3 receptor [3] = biological target: T3, Vitamin D3 receptor (Homo sapiens, UniProt P11473); experiment: (§1) Antagonist activity at human recombinant VDR LBD expressed in HEK293 cells assessed as inhibition of 300 nM 1,25-(OH)2D3-induced transcriptional activation after 16 to 18 hrs by GAL4-dependent luciferase reporter gene assay; assay type: functional, cell-based
T3 sequence (P11473 whole entry): T2 sequence (whole entry)

Vitamin D3 receptor [4] = biological target: T3, Vitamin D3 receptor; experiment: Antagonist activity at human recombinant VDR LBD expressed in HEK293 cells assessed as inhibition of 3 nM 1,25-(OH)2D3-induced transcriptional activation after 16 to 18 hrs by GAL4-dependent luciferase reporter gene assay; assay type: functional, cell-based
[5] = biological target: T2, Vitamin D3 receptor (Homo sapiens); experiment: Antagonist activity at human recombinant VDR LBD expressed in HEK293 cells assessed as inhibition of 3 nM 1,25-(OH)2D3-induced transcriptional activation at 10 uM after 16 to 18 hrs by GAL4-dependent luciferase reporter gene assay; assay type: functional, cell-based
[6] = biological target: T2, Vitamin D3 receptor (Homo sapiens); experiment: Antagonist activity at human recombinant VDR LBD expressed in HEK293 cells assessed as inhibition of 300 nM 1,25-(OH)2D3-induced transcriptional activation at 10 uM after 16 to 18 hrs by GAL4-dependent luciferase reporter gene assay; assay type: functional, cell-based
Estrogen receptor beta [7] = biological target: T4, Estrogen receptor beta (Homo sapiens, UniProt Q92731); experiment: Antagonist activity at human recombinant ERbeta LBD expressed in HEK293 cells assessed as inhibition of 0.3 nM estradiol-induced transcriptional activation at 30 uM after 16 to 18 hrs by GAL4-dependent luciferase reporter gene assay; assay type: functional, cell-based
Estrogen receptor beta [8] = biological target: T4, Estrogen receptor beta; experiment: Antagonist activity at human recombinant ERbeta LBD expressed in HEK293 cells assessed as inhibition of 0.3 nM estradiol-induced transcriptional activation after 16 to 18 hrs by GAL4-dependent luciferase reporter gene assay; assay type: functional, cell-based
Estrogen receptor [9] = biological target: T1, Estrogen receptor; experiment: Antagonist activity at human recombinant ERalpha LBD expressed in HEK293 cells assessed as inhibition of 0.3 nM estradiol-induced transcriptional activation after 16 to 18 hrs by GAL4-dependent luciferase reporter gene assay; assay type: functional, cell-based
Vitamin D3 receptor [10] = biological target: T3, Vitamin D3 receptor; experiment: Displacement of 1,25-dihydroxyvitamin D3 from GST-tagged VDR ligand binding domain assessed as inhibition of interaction with coactivator proteins by TR-FRET assay
[11] = biological target: T5, Estrogen receptor (Homo sapiens) (UniProt P03372); conditions: HEK293, 30 uM
T5 sequence (whole entry): T1 sequence (P03372 whole entry)
Description: Antagonist activity at human recombinant ERalpha LBD expressed in HEK293 cells assessed as inhibition of 0.3 nM estradiol-induced transcriptional activation at 30 uM after 16 to 18 hrs by GAL4-dependent luciferase reporter gene assay

[12] = biological target: T2, Vitamin D3 receptor (Homo sapiens); experiment: Antagonist activity at human recombinant VDR LBD expressed in HEK293 cells assessed as inhibition of 300 nM 1,25-(OH)2D3-induced transcriptional activation at 30 uM after 16 to 18 hrs by GAL4-dependent luciferase reporter gene assay; assay type: functional, cell-based
[13] = biological target: T2, Vitamin D3 receptor (Homo sapiens); experiment: Antagonist activity at human recombinant VDR LBD expressed in HEK293 cells assessed as inhibition of 3 nM 1,25-(OH)2D3-induced transcriptional activation at 30 uM after 16 to 18 hrs by GAL4-dependent luciferase reporter gene assay; assay type: functional, cell-based
[14] = biological target: T2, Vitamin D3 receptor (Homo sapiens); experiment: Displacement of 1,25-dihydroxyvitamin D3 from GST-tagged VDR ligand binding domain assessed as inhibition of interaction with coactivator proteins at 30 uM by TR-FRET assay
Androgen receptor = biological target: T6, Androgen receptor (Homo sapiens, UniProt P10275); experiment: Inhibition of AR
T6 sequence (P10275 whole entry): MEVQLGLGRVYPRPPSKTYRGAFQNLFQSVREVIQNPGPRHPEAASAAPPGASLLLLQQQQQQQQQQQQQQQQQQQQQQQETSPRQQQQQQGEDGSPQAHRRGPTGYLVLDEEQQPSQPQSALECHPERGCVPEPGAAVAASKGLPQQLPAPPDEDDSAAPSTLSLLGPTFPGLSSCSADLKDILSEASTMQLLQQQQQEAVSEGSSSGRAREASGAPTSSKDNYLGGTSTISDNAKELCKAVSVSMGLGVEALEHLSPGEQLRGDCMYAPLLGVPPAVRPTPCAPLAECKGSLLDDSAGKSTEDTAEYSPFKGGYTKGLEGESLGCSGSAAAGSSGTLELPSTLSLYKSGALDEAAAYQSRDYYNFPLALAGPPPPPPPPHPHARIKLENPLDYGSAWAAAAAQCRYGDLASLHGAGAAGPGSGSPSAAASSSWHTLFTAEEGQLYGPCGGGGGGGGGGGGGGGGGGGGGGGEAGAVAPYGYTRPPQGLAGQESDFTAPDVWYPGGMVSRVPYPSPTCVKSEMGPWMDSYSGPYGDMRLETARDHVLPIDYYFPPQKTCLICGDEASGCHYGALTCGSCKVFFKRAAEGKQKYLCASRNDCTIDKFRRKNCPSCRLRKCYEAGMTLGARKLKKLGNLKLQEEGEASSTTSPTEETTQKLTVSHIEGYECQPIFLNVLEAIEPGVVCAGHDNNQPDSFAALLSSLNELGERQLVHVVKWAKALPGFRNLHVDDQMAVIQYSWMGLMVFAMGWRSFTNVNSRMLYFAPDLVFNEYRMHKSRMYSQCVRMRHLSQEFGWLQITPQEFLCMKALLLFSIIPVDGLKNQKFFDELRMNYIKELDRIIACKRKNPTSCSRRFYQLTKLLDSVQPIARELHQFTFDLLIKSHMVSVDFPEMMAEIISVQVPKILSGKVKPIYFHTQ

[15] = biological target: T2, Vitamin D3 receptor (Homo sapiens); experiment: as §1; assay type: functional, cell-based

T4 sequence (Q92731 whole entry, the tested form may be a part): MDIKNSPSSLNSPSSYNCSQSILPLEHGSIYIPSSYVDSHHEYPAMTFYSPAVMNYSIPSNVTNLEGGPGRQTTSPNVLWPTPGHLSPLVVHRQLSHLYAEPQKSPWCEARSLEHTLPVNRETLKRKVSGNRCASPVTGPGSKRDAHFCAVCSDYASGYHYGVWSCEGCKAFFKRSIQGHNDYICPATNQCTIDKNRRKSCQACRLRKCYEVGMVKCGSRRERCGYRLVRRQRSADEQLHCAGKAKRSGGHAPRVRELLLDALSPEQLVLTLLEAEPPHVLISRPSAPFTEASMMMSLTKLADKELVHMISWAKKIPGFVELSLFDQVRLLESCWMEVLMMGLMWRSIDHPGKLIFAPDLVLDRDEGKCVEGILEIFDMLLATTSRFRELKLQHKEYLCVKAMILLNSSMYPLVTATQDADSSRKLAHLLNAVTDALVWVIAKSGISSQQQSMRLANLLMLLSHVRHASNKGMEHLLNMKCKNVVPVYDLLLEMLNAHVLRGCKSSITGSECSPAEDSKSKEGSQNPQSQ

CC(C)Cc1cc(O)c(=O)n(Cc2ccc3ccccc3c2)c1-c1ccnc(Cc2ccccc2)c1
Ki (Estrogen receptor [1]): 4.2 µM

C=C1/C(=C\C=C2/CCC[C@]3(C)[C@@H]([C@H](C)C[C@H]4C[C@@](C)(O)C(=O)N4CCc4ccccc4)CC[C@@H]23)C[C@@H](O)C[C@@H]1O
inhibition [2]: 87% | IC50 (Vitamin D3 receptor [3]): 3.3 µM | IC50 (Vitamin D3 receptor [4]): 0.22 µM | inhibition [5]: 98% | inhibition [6]: 66%

CC(C)=Cc1cc2c(cc1N)N[C@@H](CC(C)C)C(=O)N(CCC(C)C)C2
inhibition (Estrogen receptor beta [7]): 56% | IC50 (Estrogen receptor beta [8]): 22 µM | IC50 (Vitamin D3 receptor [3]): 23 µM | IC50 (Estrogen receptor [9]): > 30 µM | IC50 (Vitamin D3 receptor [10]): 20 µM | IC50 (Vitamin D3 receptor [4]): 17 µM | inhibition [11]: 8% | inhibition [12]: 59% | inhibition [13]: 68% | inhibition [14]: 76%

CC(C)CNc1cc(CCc2cccc3ccccc23)nc(NCc2cccc3ccccc23)n1
Ki (Androgen receptor): 1.5 µM

CC(C)CCN1Cc2cc(CC(C)C)c(NC(=N)N)cc2N[C@@H](CC(C)C)C1=O
IC50 (Vitamin D3 receptor [10]): > 30 µM | inhibition [14]: 46%

CC(C)CCN1Cc2cc(CC(C)C)c(N)cc2N[C@@H](CC(C)C)C1=O
inhibition (Estrogen receptor beta [7]): 18% | IC50 (Estrogen receptor beta [8]): > 30 µM | inhibition [15]: 8% | IC50 (Vitamin D3 receptor [3]): 30 µM | IC50 (Estrogen receptor [9]): > 30 µM | IC50 (Vitamin D3 receptor [10]): 30 µM | IC50 (Vitamin D3 receptor [4]): 30 µM | inhibition [12]: 53% | inhibition [13]: 47% | inhibition [14]: 48%

CC(C)CNc1cc(CC(C)C)nc(NCC(C)C)n1
Ki (Estrogen receptor [1]): 29 µM

CC(C)CCN1Cc2cc(CC(C)C)c(NCCNC(=O)OC(C)(C)C)cc2N[C@@H](CC(C)C)C1=O
IC50 (Vitamin D3 receptor [10]): 13 µM

CC(=O)NCCNc1cc2c(cc1CC(C)C)CN(CCC(C)C)C(=O)[C@H](CC(C)C)N2
IC50 (Vitamin D3 receptor [10]): > 30 µM | inhibition [14]: 43%

CC(C)CCN1Cc2cc(CC(C)C)c(NCCN)cc2N[C@@H](CC(C)C)C1=O
IC50 (Vitamin D3 receptor [10]): 28 µM
